Assay results published in paper PMC7300217, “Surfactin Like Broad Spectrum Antimicrobial Lipopeptide Co-produced With Sublancin From Bacillus subtilis Strain A52: Dual Reservoir of Bioactives” (Frontiers in Microbiology, 2020).

Legend:
[1] = system: C. aurius 470126 (clinical isolate); experiment: MIC, microtiter plate dilution assay; type: cell-based; details: 5 × 10^5 CFU/ml, 37°C, OD600 after 48 h, triplicate
Description: (§1) The antimicrobial activity was tested by well diffusion assay as mentioned earlier ([Singh et al., 2014]). Strain A52 was grown for 24 h in 500 ml of nutrient broth (NB, Hi-media, India) using 1000 ml flask and subsequently cells were removed by centrifugation (10,000 rpm for 15 min at 4°C). Supernatant was filtered through 0.22 μm filter (Millipore, United States) to obtain cell-free fermented broth (CFB) that was used for antimicrobial assay (50 μl) against various indicator strains and the activity was measured as diameter of inhibition zone. Test strains used were Staphylococcus aureus (MTCC 1430), Bacillus subtilis (MTCC 121), B. firmus (MTCC 488), B. licheniformis (MTCC 429), B. thuringiensis (MTCC 1953), Escherichia coli (MTCC 1610), Micrococcus luteus (MTCC 106), Steptococcus pyrogens (MTCC 1928), S. anginosus (MTCC 1929), S. oralis (MTCC 2696), S. mutans (MTCC 497), Candida albicans (MTCC 1637), C. albicans (MTCC 183), C. albicans (MTCC 227), C. tropicalis (MTCC 184), C. glabrata (MTCC 3019), C. haemulonii (MTCC 2766), and C. inconsplicue (MTCC 1074). The phytopathogenic fungi employed in this study were Alternaria brassicicola (MTCC 2102), Colletotrichum acutatum (MTCC 1037), and Fusarium moniliforme (MTCC 158). Clinical isolates of Candida were provided by National Culture Collection of Pathogenic Fungi (NCCPF), PGIMER, Chandigarh, India.
(§2) The minimum inhibitory concentration (MIC) of HPLC purified peptides was evaluated by using microtiter plate dilution assay. The peptide concentration was estimated using BCA protein assay (Thermo Fisher Scientific, United States) method as described by manufacturer. Actively growing test strains (5 × 10^5 CFU/ml) were inoculated in a 96-well plate with different concentrations of the peptides and plates were incubated for 24–48 h at 37°C (final volume in each well is 200 μl). OD was measured at 600 nm after 24 and 48 h for bacteria and yeast, respectively, using ELISA microplate reader (Thermo, United States). MIC against phytopathogenic fungi was determined using 96-well microtiter plate assay ([Kaur et al., 2016]). In 96-well microplates, 100 μl of fungal spore suspension (1 × 10^5 spores/ml) prepared in potato dextrose broth (PDB, Hi-media, India) was mixed with100 μl of fresh PDB containing different concentrations of lipopeptide. Control well contained 100 μl of fungal spore suspension and 100 μl of only medium. The microplates were incubated at 25°C and readings were recorded at 600 nm after 48 h. The lowest concentration showing no growth was considered as MIC. Each test was done in triplicate and optical density (OD600) of peptide treated wells were compared with uninoculated wells (blank medium control).

[2] = system: C. glabrata MTCC 3019; experiment: MIC, microtiter plate dilution assay; type: cell-based; details: 5 × 10^5 CFU/ml, 37°C, OD600 after 48 h, triplicate
Description: as §1, §2

[3] = system: C. glabrata SKSS ID (clinical isolate); experiment: MIC, microtiter plate dilution assay; type: cell-based; details: 5 × 10^5 CFU/ml, 37°C, OD600 after 48 h, triplicate
Description: as §1, §2

[4] = system: C. haemulonii 470125 (clinical isolate); experiment: MIC, microtiter plate dilution assay; type: cell-based; details: 5 × 10^5 CFU/ml, 37°C, OD600 after 48 h, triplicate
Description: as §1, §2

[5] = system: C. haemulonii MTCC 2766; experiment: MIC, microtiter plate dilution assay; type: cell-based; details: 5 × 10^5 CFU/ml, 37°C, OD600 after 48 h, triplicate
Description: as §1, §2

[6] = system: C. inconsplicue MTCC 1074; experiment: MIC, microtiter plate dilution assay; type: cell-based; details: 5 × 10^5 CFU/ml, 37°C, OD600 after 48 h, triplicate
Description: as §1, §2

[7] = system: C. kefyr 410004 (clinical isolate); experiment: MIC, microtiter plate dilution assay; type: cell-based; details: 5 × 10^5 CFU/ml, 37°C, OD600 after 48 h, triplicate
Description: as §1, §2

[8] = system: C. krusei 440009 (clinical isolate); experiment: MIC, microtiter plate dilution assay; type: cell-based; details: 5 × 10^5 CFU/ml, 37°C, OD600 after 48 h, triplicate
Description: as §1, §2

[9] = system: C. parasilosis 450030 (clinical isolate); experiment: MIC, microtiter plate dilution assay; type: cell-based; details: 5 × 10^5 CFU/ml, 37°C, OD600 after 48 h, triplicate
Description: as §1, §2

[10] = system: C. rugos 470141 (clinical isolate); experiment: MIC, microtiter plate dilution assay; type: cell-based; details: 5 × 10^5 CFU/ml, 37°C, OD600 after 48 h, triplicate
Description: as §1, §2

[11] = system: C. tropicalis 420024 (clinical isolate); experiment: MIC, microtiter plate dilution assay; type: cell-based; details: 5 × 10^5 CFU/ml, 37°C, OD600 after 48 h, triplicate
Description: as §1, §2

[12] = system: C. tropicalis MTCC 184; experiment: MIC, microtiter plate dilution assay; type: cell-based; details: 5 × 10^5 CFU/ml, 37°C, OD600 after 48 h, triplicate
Description: as §1, §2

[13] = system: S. anginosus MTCC1929; experiment: MIC, microtiter plate dilution assay; type: cell-based; details: 5 × 10^5 CFU/ml, 37°C, OD600 after 24 h, triplicate
Description: as §1, §2

[14] = system: S. mutans MTCC 497; experiment: MIC, microtiter plate dilution assay; type: cell-based; details: 5 × 10^5 CFU/ml, 37°C, OD600 after 24 h, triplicate
Description: as §1, §2

[15] = system: S. oralis MTCC 2696; experiment: MIC, microtiter plate dilution assay; type: cell-based; details: 5 × 10^5 CFU/ml, 37°C, OD600 after 24 h, triplicate
Description: as §1, §2

[16] = system: S. pyogenes MTCC 1928; experiment: MIC, microtiter plate dilution assay; type: cell-based; details: 5 × 10^5 CFU/ml, 37°C, OD600 after 24 h, triplicate
Description: as §1, §2

[17] = system: F. moniliforme MTCC 158; experiment: MIC against phytopathogenic fungi, 96-well microtiter plate assay; type: cell-based, Fusarium moniliforme; details: 1 × 10^5 spores/ml in PDB, 25°C, OD600 after 48 h, triplicate
Description: as §1
(§3) The minimum inhibitory concentration (MIC) of HPLC purified peptides was evaluated by using microtiter plate dilution assay. The peptide concentration was estimated using BCA protein assay (Thermo Fisher Scientific, United States) method as described by manufacturer. […] OD was measured at 600 nm after 24 and 48 h for bacteria and yeast, respectively, using ELISA microplate reader (Thermo, United States). MIC against phytopathogenic fungi was determined using 96-well microtiter plate assay ([Kaur et al., 2016]). […] The microplates were incubated at 25°C and readings were recorded at 600 nm after 48 h. […]

[18] = system: B. cereus MTCC 430; experiment: MIC, microtiter plate dilution assay; type: cell-based; details: 5 × 10^5 CFU/ml, 37°C, OD600 after 24 h, triplicate
Description: as §2

[19] = system: B. coagulans MTCC 492; experiment: MIC, microtiter plate dilution assay; type: cell-based; details: 5 × 10^5 CFU/ml, 37°C, OD600 after 24 h, triplicate
Description: as §2

[20] = system: E. coli MTCC 1610; experiment: MIC, microtiter plate dilution assay; type: cell-based, Escherichia coli; details: 5 × 10^5 CFU/ml, 37°C, OD600 after 24 h, triplicate
Description: The antimicrobial activity was tested by well diffusion assay as mentioned earlier ([Singh et al., 2014]). Strain A52 was grown for 24 h in 500 ml of nutrient broth (NB, Hi-media, India) using 1000 ml flask and subsequently cells were removed by centrifugation (10,000 rpm for 15 min at 4°C). Supernatant was filtered through 0.22 μm filter (Millipore, United States) to obtain cell-free fermented broth (CFB) that was used for antimicrobial assay (50 μl) against various indicator strains and the activity was measured as diameter of inhibition zone. […]
as §3, with “assay.” for “assay. The peptide concentration was estimated using BCA protein assay (Thermo Fisher Scientific, United States) method as described by manufacturer.”

[21] = pH stability, residual antimicrobial activity; type: physicochemical; details: for Residual activity (%), pH 2.0: pH 2.0 (10 mM HCl or NaOH)
Description: Sensitivity of purified peptides toward temperature, pH, and non-specific proteases was confirmed by performing bioassays. The pH stability was determined by adjusting the pH 2.0–12.0 of peptide aliquots (using 10 mM HCl or NaOH) and incubating for 4 h at room temperature. Samples were neutralized to pH 7.0 before processing for antimicrobial assay. To determine temperature susceptibility, peptides were incubated at different temperatures ranging from 37 to 100°C for 1 h and 121°C for 15 min and residual antimicrobial activity was determined at RT by well diffusion assay. Proteolytic enzymes trypsin and proteinase K (Sigma, United States) were used at three different concentrations (0.1, 1.0, and 5.0 mg/ml) to observe their effect on the peptide. The enzyme solutions were prepared in 50 mM phosphate buffer (pH 7.0). All reactions were performed at 37°C for 6 h followed by deactivation of enzyme by heating the solution in boiling water for 5 min before performing the activity assay.

Glu^1-Leu/Ile^2-Leu^3-Val^4-Asp^5-Leu^6-Leu/Ile^7 and a β-OH hexadecane fatty acid chain (lariat or depsi) [Lipopeptide A52, cyclic surfactin-like lipopeptide, 7 amino acids and C16 β-hydroxy fatty acid, 1061.9 Da, from B. subtilis strain A52]
MIC value, C. aurius 470126 [1]: 26 µg/mL
MIC value, C. glabrata MTCC 3019 [2]: 16 µg/mL
MIC value, C. glabrata SKSS ID [3]: 16 µg/mL
MIC value, C. haemulonii 470125 [4]: 28 µg/mL
MIC value, C. haemulonii MTCC 2766 [5]: 20 µg/mL
MIC value, C. inconsplicue MTCC 1074 [6]: 16 µg/mL
MIC value, C. kefyr 410004 [7]: 26 µg/mL
MIC value, C. krusei 440009 [8]: 12 µg/mL
MIC value, C. parasilosis 450030 [9]: 28 µg/mL
MIC value, C. rugos 470141 [10]: 16 µg/mL
MIC value, C. tropicalis 420024 [11]: 28 µg/mL
MIC value, C. tropicalis MTCC 184 [12]: 12 µg/mL
MIC value, S. anginosus MTCC1929 [13]: 4 µg/mL
MIC value, S. mutans MTCC 497 [14]: 6 µg/mL
MIC value, S. oralis MTCC 2696 [15]: 4 µg/mL
MIC value, S. pyogenes MTCC 1928 [16]: 2 µg/mL
MIC value, F. moniliforme MTCC 158 [17]: 20 µg/mL
MIC value, B. cereus MTCC 430 [18]: 2 µg/mL
MIC value, B. coagulans MTCC 492 [19]: 2 µg/mL
MIC value, E. coli MTCC 1610 [20]: 6 µg/mL
Residual activity (%), pH 2.0 ([21]; 4h/ 25°C, neutralized to pH 7.0 before antimicrobial assay, listed as Lipopeptide): Nil
Residual activity (%), pH 2.0 ([21]; 4h/ 25°C, neutralized to pH 7.0 before antimicrobial assay, listed as surfactin-like lipopeptide): complete loss in activity
Residual activity (%), pH 4.0 ([21]; pH 4.0 (10 mM HCl or NaOH), 4h/ 25°C, neutralized to pH 7.0 before antimicrobial assay): 100%
Residual activity (%), pH 6.0 ([21]; pH 6.0 (10 mM HCl or NaOH), 4h/ 25°C, neutralized to pH 7.0 before antimicrobial assay): 100%
Residual activity (%), pH 7.0 ([21]; pH 7.0, 4h/ 25°C): 100%
Residual activity (%), pH 8.0 ([21]; pH 8.0 (10 mM HCl or NaOH), 4h/ 25°C, neutralized to pH 7.0 before antimicrobial assay): 100%
Residual activity (%), pH 10.0 ([21]; pH 10.0 (10 mM HCl or NaOH), 4h/ 25°C, neutralized to pH 7.0 before antimicrobial assay): 100%
Residual activity (%), pH 12.0 ([21]; pH 12.0 (10 mM HCl or NaOH), 4h/ 25°C, neutralized to pH 7.0 before antimicrobial assay): Nil
